Test results published in patent publication US9561259B2, “Cyclosporin analogs” (priority 2010, dated 2017).

Experiments:
[1] = system: Spleen cells from C57BL/6 (responder) and BALB/c (stimulator); assay: Mixed Lymphocyte Reaction (MLR) assay; type: cell-based, mice; conditions: five days, 3H-thymidine incorporation
Method: The MLR assay is another means of estimating the immunosuppressive potential of test compounds. Female C57BL/6 and BALB/c mice, 6-8 weeks of age, were obtained from the Frederick Cancer Research and Development Center of the National Cancer Institute (Frederick, Md.). Spleens were harvested aseptically from all mice and single cell suspensions were prepared by disaggregating the cells with frosted glass slides, allowing the debris to settle, and washing the cells twice with complete medium. Complete medium consisted of RPMI 1640 medium containing 25 mM HEPES buffer (HyClone, Logan, Utah) supplemented with 10% heat-inactivated fetal bovine serum (FBS; Atlanta Biologicals, Lawrenceville, Ga.), 100 μg/mL streptomycin, 100 U/mL penicillin G, 0.25 μg/mL amphotericin B (HyClone), 2 mM L-glutamine dipeptide (HyClone), and 2×10^−5 M 2-mercaptoethanol (Sigma). Cells were washed twice and resuspended in complete medium. Cell counts were performed using a Beckman Coulter Z-1 particle counter (Fullerton, Calif.). Cell viability was determined by propidium iodide (PI) staining using an Accuri C6 flow cytometer (Ann Arbor, Mich.).
Spleen cells from C57BL/6 (H-2^b) and BALB/c (H-2^d) were used as responder (R) and stimulator (S) cells, respectively. Cells were plated in triplicate in 96-well flat microtiter plates (Costar, Cambridge, Mass.) such that each well contained 2×10^5 R and 8×10^5 S cells. Cultures were incubated in the absence or presence of various concentrations of Cs A, test compounds, or medium at 37° C. in humidified 5% CO2 for five days, pulsed with ^3H-thymidine (^3H-TdR) for the final 16 hours of incubation, and harvested using a Brandel 96-well cell harvester (Gaithersburg, Md.). Proliferation was measured by counting the radioactivity on filter mats in a Wallac 1450 Microbeta TriLux scintillation counter (Turku, Finland). […] These control cultures were incubated for 3 days under the same conditions as those described for the MLR; lymphoproliferation was determined in the same manner as described above.

[2] = Epimerization in MeOH at 50° C. (500 MHz NMR)
Source text: The proton attached to the sarcosine center (adjacent to the sulfur atom) appears at ˜δ 5.9 in the R-isomer whilst in the S-isomer it moves downfield to ˜δ6.5.

Substance	IC50 [1] [nM]	Epimerization (%) ([2]; time 0 days)	Epimerization (%) ([2]; time 30 days)	Epimerization (%) ([2]; time 35 days)	Epimerization (%) ([2]; time 6 days)
[(R)-(3-(4-methyl-piperazin-1-yl)-propylthio)-Sar]^3 Cyclosporin A [Example 3]	3300	0	2		
[(R)-(3-ethylisopropylamino-propylthio)-Sar]^3 Cyclosporin A [Example 2]	2800	0		0	
[(R)-(3-morpholin-4-yl-propylthio)-Sar]^3 Cyclosporin A [Example 1]	3000	0	0.2		0
